Reference: US7825256B2, “Inducible nitric oxide synthase dimerization inhibitors” (Kalypsys, Inc., priority 2004, dated 2010)

Biological target: T1, hiNOS (Homo sapiens, UniProt P35228)
T1 construct: expressed in transfected cells; host or cells: HEK293
Test: DAN assay, hiNOS expressed in transiently transfected HEK293 cells
Format: cell-based
Conditions: HEK293 cells transiently transfected with hiNOS
Summary of the method: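 Human iNOS, nNOS or eNOS transiently expressed in HEK293 cells, with nNOS and eNOS needing added cofactors for activity. NO production is read as nitrite by fluorometry: 2,3-diaminonaphthalene forms fluorescent […], detecting 10 nM to 10 μM nitrite.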

| SMILES | EC50 [nM] |
| --- | --- |
| CCOC(=O)C1CCC(C(=O)NCCc2ccc3c(c2)OCO3)N1c1nc(-n2ccnc2)ns1 (racemic) [Example 94, 5-(2-Benzo[1,3]dioxol-5-yl-ethylcarbamoyl)-1-(3-imidazol-1-yl-[1,2,4]thiadiazol-5-yl)-pyrrolidine-2-carboxylic acid ethyl ester] | < 1000 |
| Cc1cc(C2CCCN2CCNCc2ccc3c(c2)OCCO3)nc(-n2ccnc2)n1 (centres unmarked) [Example 92, (2,3-Dihydro-benzo[1,4]dioxin-6-ylmethyl)-{2-[2-(2-imidazol-1-yl-6-methyl-pyrimidin-4-yl)-pyrrolidin-1-yl]-ethyl}-amine] | < 1000 |
| c1cn(-c2nsc(N(CCCNCc3ccc4c(c3)OCO4)Cc3ccc4occc4c3)n2)cn1 [Example 101, N′-Benzo[1,3]dioxol-5-ylmethyl-N-benzofuran-5-ylmethyl-N-(3-imidazol-1-yl-[1,2,4]thiadiazol-5-yl)-propane-1,3-diamine] | < 1000 |
| N#CCN(CCCNCc1ccc2c(c1)OCO2)c1nc(-n2ccnc2)ns1 [Example 60, [{3-[(Benzo[1,3]dioxol-5-ylmethyl)-amino]-propyl}-(3-imidazol-1-yl-[1,2,4]thiadiazol-5-yl)-amino]-acetonitrile] | < 1000 |
| CN(CCCNCc1ccc(C(F)(F)F)cc1)c1nc(-n2ccnc2)ns1 [Example 11, N-(3-Imidazol-1-yl-[1,2,4]thiadiazol-5-yl)-N-methyl-N′-(4-trifluoromethyl-benzyl)-propane-1,3-diamine] | > 50000 |
| Cc1cc(C(C)N2CCC[C@@H]2C(=O)NCc2ccc3c(c2)OCO3)nc(-n2ccnc2)n1 (mixture of isomers) [Example 121, 1-[1-(2-Imidazol-1-yl-6-methyl-pyrimidin-4-yl)-ethyl]-pyrrolidine-2-carboxylic acid (benzo[1,3]dioxol-5-ylmethyl)-amide] | < 1000 |
| CN(CCCN(Cc1ccc(O)cc1)Cc1ccc(O)cc1)c1nc(-n2ccnc2)ns1 [Example 36, N-(3-Imidazol-1-yl-[1,2,4]thiadiazol-5-yl)-N′,N′-bis-(4-hydroxy-benzyl)-N-methyl-propane-1,3-diamine] | < 1000 |
| CN(CCCNCc1c(Cl)cccc1Cl)c1nc(-n2ccnc2)ns1 [Example 10, N′-(2,6-Dichloro-benzyl)-N-(3-imidazol-1-yl-[1,2,4]thiadiazol-5-yl)-N-methyl-propane-1,3-diamine] | > 50000 |
| Cc1cc(CNC(=O)C2CCCN2Cc2ccc(F)cc2)nc(-n2ccnc2)n1 (centres unmarked) [Example 111, 1-(4-Fluoro-benzyl)-pyrrolidine-2-carboxylic acid (2-imidazol-1-yl-6-methyl-pyrimidin-4-ylmethyl)-amide] | > 50000 |
| CC(C)[C@H](Nc1nc(-n2ccnc2)ns1)C(=O)NCCc1ccc2c(c1)OCO2 [Example 24, (S)—N-(2-Benzo[1,3]dioxol-5-yl-ethyl)-2-(3-imidazol-1-yl-[1,2,4]thiadiazol-5-ylamino)-3-methyl-butyramide] | < 1000 |
| Cc1cc(C(C)(C)/C=C/C(=O)NCc2ccc3c(c2)OCO3)nc(-n2ccnc2)n1 [Example 74, (E)-4-(2-(1H-Imidazol-1-yl)-6-methylpyrimidin-4-yl)-N-(benzo[d][1,3]dioxol-5-ylmethyl)-4-methylpent-2-enamide] | < 50000 |
| c1cncc(CN(CCCNCc2ccc3c(c2)OCO3)c2nc(-n3ccnc3)ns2)c1 [Example 102, N′-Benzo[1,3]dioxol-5-ylmethyl-N-(3-imidazol-1-yl-[1,2,4]thiadiazol-5-yl)-N-pyridin-3-ylmethyl-propane-1,3-diamine] | < 1000 |
| COc1ccc(CNCCCN(C)c2nc(-n3ccnc3)ns2)c(OC)c1 [Example 17, N′-(2,4-Dimethoxy-benzyl)-N-(3-imidazol-1-yl-[1,2,4]thiadiazol-5-yl)-N-methyl-propane-1,3-diamine] | < 1000 |
| NCCCN(Cc1nccs1)c1nc(-n2ccnc2)ns1 [Example 52, N′-(3-Imidazol-1-yl-[1,2,4]thiadiazol-5-yl)-N′-thiazol-2-ylmethyl-propane-1,3-diamine] | < 1000 |
| CN(CCCN(C)c1nc(-n2ccnc2)ns1)CCc1ccc2c(c1)OCO2 [Example 88, N-(2-Benzo[1,3]dioxol-5-yl-ethyl)-N′-(3-imidazol-1-yl-[1,2,4]thiadiazol-5-yl)-N,N′-dimethyl-propane-1,3-diamine] | < 1000 |
| Cc1cc(CNC(=O)C2CCCN2Cc2ccco2)nc(-n2ccnc2)n1 (centres unmarked) [Example 118, 1-Furan-2-ylmethyl-pyrrolidine-2-carboxylic acid (2-imidazol-1-yl-6-methyl-pyrimidin-4-ylmethyl)-amide] | > 50000 |
| CNC(=O)C(NC(=O)CNCc1ccc2c(c1)OCO2)c1cc(C)nc(-n2ccnc2)n1 (centres unmarked) [Example 42, 2-{2-[(Benzo[1,3]dioxol-5-ylmethyl)-amino]-acetylamino}-2-(2-imidazol-1-yl-6-methyl-pyrimidin-4-yl)-N-methyl-acetamide] | < 1000 |
| Cc1cc(CNC(=O)C2CCCN2Cc2ccc(F)c(F)c2)nc(-n2ccnc2)n1 (centres unmarked) [Example 112, 1-(3,4-Difluoro-benzyl)-pyrrolidine-2-carboxylic acid (2-imidazol-1-yl-6-methyl-pyrimidin-4-ylmethyl)-amide] | > 50000 |

| SMILES | EC50 [nM] |
| --- | --- |
| Cc1cc(CNC(=O)C2CCCN2Cc2cccc(C(F)(F)F)c2)nc(-n2ccnc2)n1 (centres unmarked) [Example 108, 1-(3-Trifluoromethyl-benzyl)-pyrrolidine-2-carboxylic acid (2-imidazol-1-yl-6-methyl-pyrimidin-4-ylmethyl)-amide] | > 50000 |
| Cc1cc(C(C)NCCNC(C)c2ccc3c(c2)OCO3)nc(-n2ccnc2)n1 (centres unmarked) [Example 44, N-(1-Benzo[1,3]dioxol-5-yl-ethyl)-N′-[1-(2-imidazol-1-yl-6-methyl-pyrimidin-4-yl)-ethyl]-ethane-1,2-diamine] | < 1000 |
| Cc1cc(C(C)(C)CCCNCc2ccc3c(c2)OCO3)nc(-n2ccnc2)n1 [Example 76, 4-(2-(1H-Imidazol-1-yl)-6-methylpyrimidin-4-yl)-N-(benzo[d][1,3]dioxol-5-ylmethyl)-4-methylpentan-1-amine] | < 1000 |
| CN(CCCNCc1cccs1)c1nc(-n2ccnc2)ns1 [Example 20, N-(3-Imidazol-1-yl-[1,2,4]thiadiazol-5-yl)-N-methyl-N′-thiophen-2-ylmethyl-propane-1,3-diamine] | > 50000 |
| CN(CCCN)c1nc(-n2ccnc2)ns1 [Example 6, N-1-(3-Imidazol-1-yl-[1,2,4]thiadiazol-5-yl)-N-1-methyl-propane-1,3-diamine] | > 50000 |
| CNC(=O)C1CCN(CCNCc2ccc3c(c2)OCO3)C1c1cc(C)nc(-n2ccnc2)n1 (centres unmarked) [Example 137, 2-(2-(1H-Imidazol-1-yl)-6-methylpyrimidin-4-yl)-1-(2-(benzo[d][1,3]dioxol-5-ylmethylamino)ethyl)-N-methylpyrrolidine-3-carboxamide] | < 1000 |
| CNNC(=N)CN(CCCNCc1ccc2c(c1)OCO2)c1nc(-n2ccnc2)ns1 [Example 62, 2-[{3-[(Benzo[1,3]dioxol-5-ylmethyl)-amino]-propyl}-(3-imidazol-1-yl-[1,2,4]thiadiazol-5-yl)-amino]-acetamidine N′-methyl-hydrazide] | < 1000 |
| O=C(NCCc1ccc2c(c1)OCO2)[C@@H]1CCCN1c1nc(-n2ccnc2)ns1 [Example 25, (S)-1-(3-Imidazol-1-yl-[1,2,4]thiadiazol-5-yl)-pyrrolidine-2-carboxylic acid (2-benzo[1,3]dioxol-5-yl-ethyl)-amide] | > 50000 |
| CN(CCCNCCc1ccc2c(c1)OCCO2)c1nc(-n2ccnc2)ns1 [Example 85, N′-[2-(2,3-Dihydro-benzo[1,4]dioxin-6-yl)-ethyl]-N-(3-imidazol-1-yl-[1,2,4]thiadiazol-5-yl)-N-methyl-propane-1,3-diamine] | < 1000 |
| Cc1cc(C(C)NCCN(C)Cc2ccc3c(c2)OCO3)nc(-n2ccnc2)n1 (single isomer, unassigned) [Example 131, N-Benzo[1,3]dioxol-5-ylmethyl-N-[1-(2-imidazol-1-yl-6-methyl-pyrimidin-4-yl)-ethyl]-N-methyl-ethane-1,2-diamine] | < 1000 |
| Cc1cc(CNS(=O)(=O)NCCc2ccc3c(c2)OCO3)nc(-n2ccnc2)n1 [Example 71] | < 50000 |
| Cc1cc(CNC(=O)C2CCCN2Cc2ccc(Cl)cc2)nc(-n2ccnc2)n1 (centres unmarked) [Example 113, 1-(4-Chloro-benzyl)-pyrrolidine-2-carboxylic acid (2-imidazol-1-yl-6-methyl-pyrimidin-4-ylmethyl)-amide] | < 50000 |
| COc1ccc(CN2CCCC2C(=O)NCc2cc(C)nc(-n3ccnc3)n2)cc1O (centres unmarked) [Example 114, 1-(3-Hydroxy-4-methoxy-benzyl)-pyrrolidine-2-carboxylic acid (2-imidazol-1-yl-6-methyl-pyrimidin-4-ylmethyl)-amide] | > 50000 |
| Cc1cc(C2C(C(=O)NCCc3ccc4c(c3)OCCO4)CCN2C)nc(-n2ccnc2)n1 (centres unmarked) [Example 124, 2-(2-Imidazol-1-yl-6-methyl-pyrimidin-4-yl)-1-methyl-pyrrolidine-3-carboxylic acid [2-(2,3-dihydro-benzo[1,4]dioxin-6-yl)-ethyl]-amide] | < 1000 |
| CN(C)C(=O)CN(CCCNCc1ccc2c(c1)OCO2)c1nc(-n2ccnc2)ns1 [Example 57, 2-[{3-[(Benzo[1,3]dioxol-5-ylmethyl)-amino]-propyl}-(3-imidazol-1-yl-[1,2,4]thiadiazol-5-yl)-amino]-N,N-dimethyl-acetamide] | < 1000 |
| Cc1cc(C(C)(C)C(=O)NCCCc2ccc3c(c2)OCO3)nc(-n2ccnc2)n1 [Example 72, 2-(2-(1H-imidazol-1-yl)-6-methylpyrimidin-4-yl)-N-(3-(benzo[d][1,3]dioxol-5-yl)propyl)-2-methylpropanamide] | < 50000 |
| CCOC(=O)c1csc(C2CCN(CCNCc3ccc4c(c3)OCO4)C2c2cc(C)nc(-n3ccnc3)n2)n1 (centres unmarked) [Example 141, 2-[1-{2-[(Benzo[1,3]dioxol-5-ylmethyl)-amino]-ethyl}-2-(2-imidazol-1-yl-6-methyl-pyrimidin-4-yl)-pyrrolidin-3-yl]-thiazole-4-carboxylic acid ethyl ester] | < 1000 |
